Consider one compound from patent publication US20150141523A1, “COMPOUNDS FOR USE IN THE TREATMENT OF AUTOIMMUNE INFLAMMATORY DISEASE” (Venantius Limited, priority 2012, published 2015).

This test relates to Balb/C mice. As to the kind of experiment: Oxazolone contact hypersensitivity (CHS) mouse ear swelling. Type of test: in vivo. The settings on record: 15 mg/kg; vehicle 107%. Here is the method:
Female Balb/C mice (30-40 gms) were sensitised on day 0 with 20 μl of 2% oxazolone in acetone on each ear (10 μl on the inner and outer aspects of both ears). All mice were challenged on day 5 with 20 μl of 2% oxazolone in acetone only on the right ear; again, 10 μl on both the inner and outer aspects of the ear. Immediately following this, the mice were treated with test compound. The test compound was administered in exactly the same way as the oxazolone, with 10 μl on each side of the right ear. […] For the […] group, acetone was administered. All animals were killed 24 hrs later and the percentage increase in ear swelling was calculated. This was done in two ways. The thickness of the unchallenged left ear and the challenged right ear were measured using a micrometer caliper (μm). The increase in weight of both ears was also measured using a 5 mm biopsy punch (mgs). The percentage increase in oedema was then calculated for both weight and thickness by expressing the difference between the unchallenged left ear and the challenged right ear as a percentage of the left ear control.

In the case of `C[C@@H]1C[C@H]2[C@@H]3CCC4=CC(=O)C=C[C@]4(C)[C@@]3(F)[C@@H](O)C[C@]2(C)[C@@]1(O)C(=O)CO` [dexamethasone, reference compound], the “increase in ear punch weight” value came to 42%.
